Measurements: patent publication US20070155803A1, “Protease inhibitors” (ProZymex A/S, priority 2003, published 2007)
Square brackets hold non-standard residues; d marks the D form. Peptide text beside a SMILES is read from it. Phe(3-F) = N[C@@H](Cc1cccc(F)c1)C(=O)O; hPhe = N[C@@H](CCc1ccccc1)C(=O)O; Abu = CC[C@H](N)C(=O)O; azaGly = NNC(=O)O

Columns and labels:
[1] = target: T1, cellular rat DPP-I (RBL-2H3 cells) (Rattus norvegicus, UniProt P80067); test: Cellular DPP-I assay; assay type: cell-based; conditions: concentration and time not given
T1 construct: The RBL-2H3 cells (basophilic leukaemia cell line), were obtained from the American Type Culture Collection; endogenous in cells; host or cells: RBL-2H3 cells (ATCC)
T1 sequence (P80067 25-462): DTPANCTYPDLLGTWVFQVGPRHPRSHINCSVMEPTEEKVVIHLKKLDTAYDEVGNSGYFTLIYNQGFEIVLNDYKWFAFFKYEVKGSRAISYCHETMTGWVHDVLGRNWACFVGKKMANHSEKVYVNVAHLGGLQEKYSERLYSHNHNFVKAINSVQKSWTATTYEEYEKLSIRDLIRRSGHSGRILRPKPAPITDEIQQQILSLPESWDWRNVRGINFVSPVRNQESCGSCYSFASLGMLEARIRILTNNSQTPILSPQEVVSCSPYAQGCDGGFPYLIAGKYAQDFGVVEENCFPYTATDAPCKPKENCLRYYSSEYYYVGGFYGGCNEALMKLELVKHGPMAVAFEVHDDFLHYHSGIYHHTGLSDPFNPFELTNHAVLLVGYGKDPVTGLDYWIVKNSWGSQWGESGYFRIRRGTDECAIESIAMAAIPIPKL
Experimental: The following assay was used to the determine the inhibitory effect of compounds of the invention on cellular rat DPP-I.
The RBL-2H3 cells (basophilic leukaemia cell line), were obtained from the American Type Culture Collection. Cells were cultured at 37° C. in humidified air atmosphere with 5% CO2. Cells were grown in complete media (CM) consisting of RPMI (GIBCO) supplemented with 10% heat-inactivated foetal bovine serum (FBS; GIBCO), 100 U/mL penicillin and 100 ug/mL streptomycin (GIBCO).
All cell-based experiments employing inhibitors of DPP-I were performed by addition of the compound (kept below −20° C. as a 10 mM stock solution in DMSO (Sigma)) for indicated time and concentrations to sub-confluent cell cultures growing on culture dishes. All experiments were set up in triplicates. Following the treatment, cells were washed twice in ice-cold PBS (Sigma) and scraped from the culture dish. After another wash in PBS cells were lysed in ice-cold H2O containing 0.3% Triton×100. An additional volume of buffer containing 40 mM MOPS, 2M NaCl, 2 mM EDTA and 20% of glycerol was added. The cell lysate was clarified by centrifugation at 3000 rpm for 10 min. The resulting supernatant was transferred to eppendorf tubes. The Coomassie Plus Protein Assay (Pierece) was used to determine protein levels of the samples.
In Vitro Measurement of DPP-I Activity: […]

Human liver cathepsin L = target: T2, Human liver cathepsin L (Homo sapiens, UniProt P07711); test: Human liver cathepsin L assay; assay type: biochemical
T2 construct: Human liver cathepsin L (Enzyme System Products, Catl-1); purchased Enzyme System Products Catl-1; host or cells: human liver
T2 sequence (P07711 114-333): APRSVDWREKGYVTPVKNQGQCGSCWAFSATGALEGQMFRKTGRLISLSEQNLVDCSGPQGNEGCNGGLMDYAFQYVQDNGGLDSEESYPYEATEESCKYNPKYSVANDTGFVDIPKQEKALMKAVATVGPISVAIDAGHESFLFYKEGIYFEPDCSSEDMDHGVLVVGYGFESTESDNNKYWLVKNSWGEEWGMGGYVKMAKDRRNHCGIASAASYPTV
Experimental: Human Liver Catheosin L Assay
Using this assay, the selectivity of a compound of the invention for hDPP-I over human cathepsin L was determined, using a fluorogenic substrate.
Human liver cathepsin L (Enzyme System Products, Catl-1; 5 μL of a 1.61 μU/IμL stock) was solubilized in 2500 μL enzyme buffer. Prior to running experiment, 1 μL 0.5 M DTT/100 μL enzyme Solution was added. inoubated for 5 minutes on ice then added to reaction mixture.
Z-Phe-ARG-AFC*TFA (Enzyme System Products AF052; 15.6 mg) was dissolved in 1 mL DMSO, giving a 20 mM solution.
The assay was performed in 96-well plates. 50 μL assay buffer was added to the well followed by 25 μL reference inhibitor (cystatin, stock 1 mg/mL, diluted with assay buffer to give 25 nM in assay) or a compound of the invention (diluted with assay buffer to give 10 μM in the assay). Then 25 μL (80 nU) enzyme was added, and 1 min. later (at 37° C.) 100 μL substrate (10 μM in the assay) was added. The excitation wavelength was 400 nm, and the emission was measured at 505 nm for 10-20 minutes at 37° C. Each measurement was made in duplicate. In the software (SOFTmax Pro) used for data collection from the fluorometer (Molecular Devices: Gemini XS), it was ensured that the measured slopes were linear (R^2>0.99). Data were exported to GraphPad Prism and nonlinear regression was performed using the option Sigmoidal dose-response (variable slope).

## CC[C@H](N)C(=O)NNC(=O)N[C@@H](CCc1ccccc1)C(=O)N[C@@H](Cc1cccc(F)c1)C(N)=O [Example 11, 1-(2S-2-Aminobutanoyl)-4-[2S-N-[2S-3-(m-fluorophenyl)propan-2-yl-amide]-4-phenylbutan-2-yl-amide]semicarbazide] (H-[Abu][azaGly][hPhe][Phe(3-F)]-NH2)
[1]
  Cellular (% inhibition) DPP-I (RBL-2H3 cells): 54%
Human liver cathepsin L
  Inhibition of Cathepsin L (in words): does not inhibit
Human liver cathepsin L; human liver cathepsin L, 10 μM cutoff, read-out: Secondary enzymatic screening (10 μM cutoff or IC50) Cathepsin L
  IC50: > 10 µM
